Legend:
KM mice = experiment: Acetic acid induced writhing test; format: in vivo; details: 30 mg/kg s.c.; for No. of writhing's: 0.6% acetic acid 15 min after dosing, 30-minute period; for Percentage of Inhibition / Significant compared to the model group: writhing
Procedure: Fifteen minutes after administration, a 0.6% acetic acid solution (5 mL/kg) was injected into the abdominal cavity. The mice were then placed in an observation box, and the number of writhing episodes was recorded within a 30-minute period. The assessment of pain intensity was based on the observation of the mice's writhing behavior.

[1] = Metabolic stability in liver microsomes (rat); format: in vitro ADME; details: for CLint scaled at 1 μM: pH 7.4; for half-life at 1 μM: pH 7.4, read-out: Metabolic stability T½
Procedure: Buffers A-C were prepared for use in the metabolic study. The buffers were as follows: Buffer A: 1.0 L of 0.1 M monobasic Potassium Phosphate buffer containing 1.0 mM EDTA; Buffer B: 1.0 L of 0.1 M Dibasic Potassium Phosphate buffer containing 1.0 mM EDTA; and Buffer C: 0.1 M Potassium Phosphate buffer, 1.0 mM EDTA, pH 7.4 by titrating 700 mL of buffer B with buffer A while monitoring with the pH meter.
Ketanserin was used as the reference compound. Reference compound and test compound spiking solutions (500 μM spiking solution) were prepared by adding 10 μL of 10 mM DMSO stock solution into 190 μL ACN. 1.5 μL of 500 μM spiking solution (0.75 mg/mL) and 18.75 μL of 20 mg/mL liver microsomes were added into 479.75 μL of Buffer C on ice.
A 6 mM NADPH stock solution was prepared by dissolving an appropriate amount of NADPH into buffer C. 30 μL of 1.5 μM spiking solution containing 0.75 mg/mL microsomes solution was dispensed to the assay plates designated for different time points (0-, 5-, 15-, 30-, 45-min) on ice. […] All the other plates were pre-incubated at 37° C. for 5 minutes. 15 μL of 6 mM NADPH stock solution was added to the plates to start the reaction and time. At 5-min, 15-min, 30-min, and 45-min, 135 μL of ACN containing internal standard were added to the wells of corresponding plates, respectively, to stop the reaction. […]

CYP2D6 = molecular target: T1, CYP2D6 (Homo sapiens, UniProt P10635); experiment: CYP inhibition in HLM, CYP2D6; format: in vitro ADME; details: read-out: CYP inhibition (IC50 um) 2D6
T1 construct: from tissue; host or cells: liver microsomes (HLM)
Procedure: (§1) 0.1 M potassium phosphate buffer (K-buffer), pH 7.4 was preheated. K-buffer was prepared by mixing 9.5 mL Stock A into 40.5 mL Stock B. The total volume was brought to 500 mL with Milli-Q water. The buffer was titrated with KOH or H3PO4 to pH 7.4. Stock A (1 M monobasic potassium phosphate) was prepared by adding 136.5 g of monobasic potassium phosphate into 1 L of Milli-Q water. Stock B (1 M dibasic potassium phosphate) was prepared by adding 174.2 g of dibasic potassium phosphate in 1 L of Milli-Q water.
(§2) Serial dilution for test compound and reference inhibitors (400×) was prepared in a 96-well plate. 8 μL of 10 mM test compounds was transferred to 12 μL of ACN. Inhibitor spiking solution was prepared for CYP1A2, CYP2C9 and CYP2D6 in cocktail by adding 12 μL of 1 mM α-Naphthoflavon, 10 μL of 40 mM Sulfaphenazole, 10 μL of 10 mM Quinidine, and 8 μL of DMSO. Individual inhibitor spiking solution for CYP3A4 and CYP2C19 was prepared by adding 8 μL of DMSO stock to 12 μL of ACN. 1:3 serial dilutions were performed in DMSO:ACN mixture (v/v: 40:60).
(§3) NADPH cofactor was prepared by dissolving 66.7 mg NADPH in 10 mL 0.1 M K-buffer, pH7.4. 4×substrate (2 mL for each isoform) was prepared. HLM was added were required on ice. 0.2 mg/mL HLM solution was prepared using 10 μL of 20 mg/mL to 990 μL of 0.1 M K-buffer on ice. 400 μL of 0.2 mg/mL HLM were added to the assay wells and then 2 μL of 400×test compound set were added into the designated wells on ice. 200 μL of 0.2 mg/mL HLM was added to the assay wells and followed by 1 μL of serially diluted reference inhibtor solution into the designated wells on ice. The following solutions were added in duplicated in a 96-well plate on ice: 30 μL of 2×test compound and reference compound in 0.2 mg/mL HLM solution and 15 μL of 4×substrate solution. The 96-well assay plate and NADPH solution were pre-incubated at 37° C. for 5 minutes. 15 μL of pre-warmed 8 mM NADPH solution was added to into the assay plates to initiate the reaction. The assay plate was incubated at 37° C. 5 mins, 10 mins, and 45 mins. […]

CYP3A4 = molecular target: T2, CYP3A4 (Homo sapiens, UniProt P08684); experiment: CYP inhibition in HLM, CYP3A4; format: in vitro ADME; details: read-out: CYP inhibition (IC50 um) 3A
T2 construct: from tissue; host or cells: liver microsomes (HLM)
Procedure: as §1, §2, §3

[2] = Log D octanol / potassium phosphate buffer; format: physicochemical; details: octanol / potassium phosphate buffer (pH 7.4), 25° C.
Procedure: 10 μL of 10 mM stock solutions were placed into a 96-well plate. 300 μL of octanol into the plate was added to the plate. The plate was sealed and agitated on a plate shaker for 5 minutes. The plate was centrifuged at 2000 rpm for 5 minutes. The seal was removed and 600 μL of potassium phosphate buffer (pH 7.4) was added. The plate was sealed, and the two phases were mixed on the plate shaker vigorously for 1 hour at 25° C. The plate was centrifuged at 2000 rpm for 5 minutes after mixing and the seal was removed. 10 μL of water phase samples from the water phase plate was aspirated and mixed with 10 μL of water (1:2 dilution). 180 μL of 50% Ethanol was added into the water phase sample plate (1:10 dilution) to achieve 1:20 dilution. 50 μL of water phase sample was mixed with 100 μL of 50% Ethanol (containing IS) into the water phase sample plate to achieve 1:60 dilution. 10 μL from the octanol phase (the upper phase) was transfered into a new 96-well plate and 190 μL 50% Ethanol (1:20 dilution) was added. 10 μL of 1:20 diluted octanol samples were transferred into a new 96 deep-well plate and 390 μL 50% Ethanol (1:40 dilution) was added to achieve 1:800 dilution. 50 μL of 1:800 diluted octanol samples were transferred into a new 96-well plate again and 100 μL 50% ethanol with IS was added to achieve 1:2400 dilution. Samples were ready for LC/MS analysis.

T2 sequence (P08684 whole entry): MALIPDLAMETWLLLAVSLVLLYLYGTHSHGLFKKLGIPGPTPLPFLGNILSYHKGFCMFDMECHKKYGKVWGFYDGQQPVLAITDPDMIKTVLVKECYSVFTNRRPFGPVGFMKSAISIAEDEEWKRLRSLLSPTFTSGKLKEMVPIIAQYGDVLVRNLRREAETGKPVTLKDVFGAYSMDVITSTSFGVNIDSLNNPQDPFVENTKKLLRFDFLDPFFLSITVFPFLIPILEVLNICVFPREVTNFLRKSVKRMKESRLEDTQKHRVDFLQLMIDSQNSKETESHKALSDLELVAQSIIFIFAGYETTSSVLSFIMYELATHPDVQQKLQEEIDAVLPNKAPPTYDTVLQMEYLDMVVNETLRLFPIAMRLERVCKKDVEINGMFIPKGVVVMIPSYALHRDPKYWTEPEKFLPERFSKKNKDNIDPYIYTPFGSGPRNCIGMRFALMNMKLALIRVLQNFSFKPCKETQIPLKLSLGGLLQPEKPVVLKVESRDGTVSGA
T1 sequence (P10635 whole entry): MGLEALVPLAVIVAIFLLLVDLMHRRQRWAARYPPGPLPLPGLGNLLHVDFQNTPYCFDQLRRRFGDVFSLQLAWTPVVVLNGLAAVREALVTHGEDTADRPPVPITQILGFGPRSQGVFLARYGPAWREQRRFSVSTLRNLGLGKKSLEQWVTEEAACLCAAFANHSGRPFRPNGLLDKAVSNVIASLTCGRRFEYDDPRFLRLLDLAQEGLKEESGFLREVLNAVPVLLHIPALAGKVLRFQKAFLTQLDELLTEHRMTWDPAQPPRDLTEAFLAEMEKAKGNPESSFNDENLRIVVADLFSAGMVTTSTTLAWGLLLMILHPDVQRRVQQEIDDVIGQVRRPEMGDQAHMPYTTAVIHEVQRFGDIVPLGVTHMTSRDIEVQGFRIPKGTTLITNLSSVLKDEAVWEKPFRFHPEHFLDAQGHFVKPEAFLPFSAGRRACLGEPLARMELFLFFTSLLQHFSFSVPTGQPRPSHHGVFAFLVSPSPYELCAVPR

Structure (SMILES) | No. of writhing's (KM mice) | Percentage of Inhibition (KM mice) | Significant compared to the model group (KM mice) | CLint scaled at 1 μM [1] | half-life at 1 μM [1] | IC50 (CYP2D6) | IC50 (CYP3A4) | logD [2]
CC(C)(NC(=O)[C@H]1[C@@H]2CNC[C@H]1C2)c1ncc2c(Cl)cccn12 [Compound 7, (1R,5S,6r)-N-(2-(8-chloroimidazo[1,5-a]pyridin-3-yl)propan-2-yl)-3-azabicyclo[3.1.1]heptane-6-carboxamide] | 10 | 69.16% | Yes | 18.4 mL/min/kg | 2.25 h | > 10 µM | > 10 µM | -0.07
CC(C)(NC(=O)[C@H]1[C@@H]2CNC[C@H]1C2)c1ncc2c(Br)cccn12 [Compound 8, (1R,5S,6r)-N-(2-(8-bromoimidazo[1,5-a]pyridin-3-yl)propan-2-yl)-3-azabicyclo[3.1.1]heptane-6-carboxamide] | 3 | 86.26% | Yes | 2.98 mL/min/kg | 9.71 h | > 10 µM | > 10 µM | -0.15
CC(C)(NC(=O)[C@H]1[C@@H]2CNC[C@H]1C2)c1nc(C2CC2)c2ccccn12 [Compound 9, (1R,5S,6r)-N-(2-(1-cyclopropylimidazo[1,5-a]pyridin-3-yl)propan-2-yl)-3-azabicyclo[3.1.1]heptane-6-carboxamide] | 8 | 62.34% | Yes | 1.73 mL/min/kg | 23.9 h | > 10 µM | > 10 µM | -0.11

Reference: patent US20240174693A1, “SOMATOSTATIN RECEPTOR SUBTYPE 4 (SSTR4) AGONISTS AND THEIR APPLICATIONS” (Humanwell Pharmaceutical US, priority 2022, published 2024)
